Results as given in PubChem BioAssay (NCI).
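Five compound concentrations were applied to cells in 96-well plates for 48 hours; endpoints were derived by simple linear interpolation of the resulting dose-response curve. TGI is the concentration that stops growth completely.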

Key:
Assay in all cases: DTP human tumour cell line panel, 48 h
A549 NSCLC = test system: A549 NSCLC
BT-549 breast = test system: BT-549 breast
EKVX NSCLC = test system: EKVX NSCLC
HS 578T breast = test system: HS 578T breast
M14 melanoma = test system: M14 melanoma
MALME-3M melanoma = test system: MALME-3M melanoma
NCI/ADR-RES ovarian = test system: NCI/ADR-RES ovarian
RXF 393 renal = test system: RXF 393 renal
SK-OV-3 ovarian = test system: SK-OV-3 ovarian
SNB-75 CNS = test system: SNB-75 CNS
SW-620 colon = test system: SW-620 colon
U251 CNS = test system: U251 CNS
HOP-92 NSCLC = test system: HOP-92 NSCLC

| SMILES | TGI (A549 NSCLC) [µM] | TGI (BT-549 breast) [µM] | TGI (EKVX NSCLC) [µM] | TGI (HS 578T breast) [µM] | TGI (M14 melanoma) [µM] | TGI (MALME-3M melanoma) [µM] | TGI (NCI/ADR-RES ovarian) [µM] | TGI (RXF 393 renal) [µM] | TGI (SK-OV-3 ovarian) [µM] | TGI (SNB-75 CNS) [µM] | TGI (SW-620 colon) [µM] | TGI (U251 CNS) [µM] | TGI (HOP-92 NSCLC) [µM] |
| --- | --- | --- | --- | --- | --- | --- | --- | --- | --- | --- | --- | --- | --- |
| O=C1NC(=NC2CCCCC2)C2(CCN(CCCC3(c4ccc(F)cc4)OCCO3)CC2)N1c1ccccc1 | 46.3 | 18.5 | 36.2 | 35 | 41.5 | 30.5 | 66.8 | 31.1 | 42.7 | 29.8 | 50.2 | 30.2 |  |
| CC(=O)OC[C@@H](OC(C)=O)[C@@H](OC(C)=O)[C@H]1OC[C@@H]2C[C@H]([C@H]1OC(C)=O)N(Cc1ccccc1)O2 | > 100 | > 100 | > 100 | > 100 | > 100 | > 100 | > 100 | > 100 | > 100 | > 100 | > 100 | > 100 | > 100 |
| Cc1ccc(/C(O)=C/c2nc3ccccc3[nH]c2=O)c(C)c1 | > 58.8 | > 57.5 | 56.1 | 59.2 | > 96 | 98.8 | 55.6 | > 49.2 | 33.6 | 20.3 | > 100 | 36.7 | 16.9 |
| COC(=O)c1c(O)ccc2c1c1c(n2-c2ccc(OC)cc2)C(=O)c2ccccc2C1=O | 32.2 | 84.9 | 39.6 | 46.4 | > 100 | 58.4 | 48 | 25.7 | 39.2 | 51.5 | > 100 | 28.4 | 36.7 |
| O/N=C1\CCc2cc3c(cc21)CCC3 | > 100 | > 100 | > 100 | > 100 | > 100 | > 100 | > 100 | > 100 | > 100 | > 100 | > 100 | > 100 | > 100 |
| O=C(OC(/C=C/c1ccccc1)P1(=O)N(Cc2ccccc2)[C@@H]2CCCC[C@H]2N1Cc1ccccc1)c1ccccc1 (some centres undefined) | > 100 | > 55.8 | > 100 | > 100 | > 100 | > 75.5 | > 100 | > 100 | > 100 | > 28.1 | > 100 | > 100 | 8.08 |
| CN1CCN(CCCCN2c3ccccc3Sc3ccc(N=[N+]=[N-])cc32)CC1 | 29.3 | 26.9 | 29.4 | 30.7 | 3.83 | 6.39 | 30 | 19.1 |  | 16.2 | 6.85 | 16.9 | 12.3 |
| OC(C/C(=N\N=C(/CC(O)(C(F)(F)F)C(F)(F)F)c1ccccc1)c1ccccc1)(C(F)(F)F)C(F)(F)F | > 10 | > 10 | > 10 | > 10 | > 10 | > 10 | > 10 | > 10 | > 10 | > 10 | > 10 | > 10 | > 10 |
| O=C1c2ccccc2-c2c1c(-c1ccccc1)c1n2C2(C(=O)c3ccccc3C2=O)C2C(=O)N(c3ccccc3)C(=O)C12 (centres undefined) | > 100 | 45.2 | > 100 | 63.7 | > 100 | 51.9 | > 100 | 41.5 | > 100 | 79.2 | > 100 | > 100 | 73.7 |
| CC(=O)N1N=C(c2c(O)ccc3ccccc23)CC1c1ccc(Cl)cc1 (centres undefined) | > 100 | 51.1 |  | 45.1 | 33.5 | 76.8 | 43.9 | 42.9 | > 100 | > 100 | > 100 | 63.1 | 39.5 |
| Cc1ccc(S(=O)(=O)NC2=NS(=O)(=O)c3cc(C)c(Cl)cc3S2)cc1 | > 100 | > 100 | > 100 | > 100 | > 100 | > 100 | > 100 | > 100 | > 100 | > 100 | > 100 | > 100 | > 100 |
| O=C(/C=C(\O)c1ccc(Cl)cc1)C(=O)NN=C(c1ccccc1)c1ccccc1 | > 100 | > 100 | > 100 | 85.3 | > 100 | > 100 | 50.3 | > 100 | > 100 | > 100 |  | > 100 |  |
| CC[N+]1(C)CCC(O)(/C=C/c2ccc(Cl)cc2)C(C(=O)/C=C/c2ccc(Cl)cc2)C1 (centres undefined) | 43 | 39.3 | > 57.3 | > 30.1 | > 38 | 24.3 | 39.7 | 25.4 | 36.8 | 26.7 |  | 20.8 | 9.11 |
| COc1ccc2c(c1)N=C1CSC(c3c(Cl)cccc3[N+](=O)[O-])N1C2 (centres undefined) | > 100 | 62.9 | > 100 | > 100 | > 100 | > 100 | > 100 | > 100 | > 100 | 98.5 | > 100 | > 100 | > 100 |
| CCN1C[C@]2(C)CC[C@H](OCc3ccccc3)C34C5C[C@@H]6CC[C@](O)(C(C[C@@H]32)C14)C5[C@H]6OCc1ccccc1 (some centres undefined) | > 100 | > 100 | > 100 | > 100 | > 100 | > 100 | > 100 | > 100 | > 100 | > 100 | > 100 | > 100 | > 100 |
| CCCCc1ccc(Nc2nc(N)c3ncn(COCCO)c3n2)cc1 | > 100 | 59.8 | > 100 | 75 | 45.3 | 52.7 | 71.7 | 98.2 | 26.9 | 80.4 | > 100 | 66.4 | 45.1 |
| O=C(Cc1ccccc1)NNc1nc(NNC(=O)c2ccncc2)nc(Nc2ccc(Cl)cc2)n1 | > 10 | > 10 | > 10 | > 10 | > 10 | > 10 | > 10 |  | > 10 | > 10 | > 10 | > 10 | > 10 |
